According to patent publication US20180036330A1, “NUCLEOTIDE PHOSPHORAMIDATE FORMULATION” (priority 2015, published 2018):
Converted amounts (≈) assume the structure as drawn. Where two headings read alike, the source gives them in different places.

What was measured:
[1] = tested on: HCV replicon (NS3-NS5B regions of HCV type 1 b) in Huh-7 luc/neo cells; assay: HCV replicon assay (Huh-Luc, luciferase); type: cell-based; details: Hepatitis C virus, Huh-7, 72 h, three days incubation, luciferase activity, n>10
Text: The compositions of the invention may be examined for activity in the inhibition of HCV RNA replication in a cellular assay aimed at identifying compounds that inhibit a HCV functional cellular replicating cell line, also known as HCV replicons. A suitable cellular assay is based on a bicistronic expression construct, as described by Lohmann et al. (1999), Science vol. 285 pp. 110-113 with modifications described by Krieger et al. (2001), Journal of Virology 75: 4614-4624, in a multi-target screening strategy.
The assay utilizes the stably transfected cell line Huh-7 luc/neo (hereafter referred to as Huh-Luc). […]
The replicon cells are plated in 384 well plates in the presence of the test and control compounds which are added in various concentrations. Following an incubation of three days, HCV replication is measured by assaying luciferase activity (using standard luciferase assay substrates and reagents and a Perkin Elmer ViewLux™ ultraHTS microplate imager). […] The inhibitory activity of a compound on luciferase activity is monitored on the Huh-Luc cells, enabling a dose-response curve for each test compound. […]

[2] = Solubility of Compound 1 in ethanol; type: physicochemical; details: for solubility: 99% ethanol, organic solvent or mixture, heated to 50-60° C., transparent syrup, read-out: solubility in ethanol: final concentration fully dissolved
Experimental: 100.43 mg of Compound 1 was weighed into a glass vial. 37 μl of 99% ethanol was added so that final concentration was 2700 mg/ml. The formulation was heated to 50-60° C. during gentle agitation until the drug substance was fully dissolved. A transparent syrup was obtained and the solution remained transparent after cooling and storage at room temperature for more than 48 hours with no visible crystals.
200.26 mg of Compound 1 was weighed into a glass vial. 67 μl of 99% ethanol was added so that final concentration was 3000 mg/ml. The formulation was heated to 50-60° C. during gentle agitation until the drug substance was fully dissolved. A transparent syrup was obtained.

[3] = Basket dissolution test USP method 711 of Compound 1 in hard gelatin capsule (Example 3); type: physicochemical; details: for Mean % Compound 1 released: n = 2
Experimental: Dissolution test. 350 mg of Compound 1 was filled into a hard gelatin capsule. A basket dissolution test was performed according to USP method 711, at 100 rpm at 37° C., 900 g media, 5 ml sampling after 20, 45, 90 minutes. Samples were analysed by RP-UPLC. […] The lump was very sticky when wet but dried to a hard lump in air.

Huh-Luc cell line = assay: Cell toxicity in the Huh-Luc cell line; type: cell-based
[4] = solvent not given, context ethanol, cited from earlier work

| SMILES | EC50 [1] | time solution remained transparent with no visible crystals ([2]; 2700 mg/ml in 99% ethanol, after cooling, storage at room temperature) | appearance after cooling and storage at room temperature ([2]; 3000 mg/ml in 99% ethanol) | solubility ([2]; 100.43 mg in 37 μl 99% ethanol) | solubility ([2]; 200.26 mg in 67 μl 99% ethanol) | Mean % Compound 1 released ([3]; 0.1M HCl, 20 min, 350 mg in hard gelatin capsule, 37° C., 100 rpm) | Mean % Compound 1 released ([3]; 0.1M HCl, 45 min, 350 mg in hard gelatin capsule) | Mean % Compound 1 released ([3]; 0.1M HCl, 90 min, 350 mg in hard gelatin capsule) | observation of capsule during dissolution test ([3]; 350 mg in hard gelatin capsule, 90 min) | Mean % Compound 1 released ([3]; FaSSIF, 20 min, 350 mg in hard gelatin capsule) | Mean % Compound 1 released ([3]; FaSSIF, 45 min, 350 mg in hard gelatin capsule) | Mean % Compound 1 released ([3]; FaSSIF, 90 min, 350 mg in hard gelatin capsule) | solubility of the lump in 70% EtOH ([3]; lump formed from capsule, 70% EtOH) | cell toxicity (Huh-Luc cell line) | published solubility ([4]; Cayman Chemical item no 15402 and Apex BT Catalog no. A3738) | published solubility ([4]; Selleckchem Catalog no S2794) |
| --- | --- | --- | --- | --- | --- | --- | --- | --- | --- | --- | --- | --- | --- | --- | --- | --- |
| CC(C)OC(=O)[C@H](C)N[P@](=O)(OC[C@H]1O[C@@H](n2ccc(=O)[nH]c2=O)[C@@](F)(Cl)[C@@H]1O)Oc1ccccc1 [Compound 1, (S)-Isopropyl 2-(((S)-(((2R,3R,4S,5R)-4-chloro-5-(2,4-dioxo-3,4-dihydropyrimidin-1(2H)-yl)-4-fluoro-3-hydroxytetrahydrofuran-2-yl)methoxy)(phenoxy)phosphoryl)amino)propanoate] | 55 nM | more than 48 hours | solidified to a slightly opaque semisolid with no visible crystals | 2700 mg/mL (≈ 4910 mM) | 3000 mg/mL (≈ 5460 mM) | 2% | 3% | 5% | water insoluble lump that did not dissolve or change much during 90 min | 2% | 5% | 8% | surprisingly soluble | > 50 µM |  |  |
| CC(C)OC(=O)[C@H](C)N[P@](=O)(OC[C@H]1O[C@@H](n2ccc(=O)[nH]c2=O)[C@](C)(F)[C@@H]1O)Oc1ccccc1 [sofosbuvir] |  |  |  |  |  |  |  |  |  |  |  |  |  |  | 25 mg/mL | 100 mg/mL |
